Experimental findings from the supplement of paper PMC4314810 are described below.

± gives the standard deviation of the averaged measurements.

The test system of the series is MCF7. Kind of series: HRG-induced Akt activation (dPAkt = log2 pAkt/Akt HRG-stimulated minus log2 pAkt/Akt basal) (log2 ratio difference); higher = stronger HRG-induced Akt(T308) phosphorylation. The note with it: miRNA mimic concentration 10 nM; time after transfection 72 h; heregulin 10 ng/ml; stimulation time 1 h. A digest of the protocol: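 MCF7 cells were plated […] in 96-well plates and transfected in two biological replicates with a library of 879 miRNA mimics (10 nM final) using Lipofectamine RNAiMax; 72 h later they were stimulated for 1 h with 10 ng/ml heregulin-beta1 or left unstimulated. After fixation in 4% PFA, phospho-Akt(T308) and total Akt were measured by In-Cell Western on an Odyssey, with signals corrected for column-wise fixation decay. Heregulin-induced Akt activation is the stimulated minus unstimulated value of the log ratio of phospho-Akt to total Akt, averaged over replicates. That log ratio is log2(pAkt/Akt).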
Consider UACCACAGGGUAGAACCACGG, for which the “HRG-induced Akt activation (log2)” value is 1.43 ± 0.074. As to UACCCAGAGCAUGCAGUGUGAA, the “HRG-induced Akt activation (log2)” value was 1.78 ± 0.12.

Turning to UACCCAUUGCAUAUCGGAGUUG, the “HRG-induced Akt activation (log2)” value was 1.78 ± 0.071. Take UACCCUGUAGAACCGAAUUUGUG: the “HRG-induced Akt activation (log2)” value came out at 1.99 ± 0.17. Turning to UACCCUGUAGAUCCGAAUUUGUG, the “HRG-induced Akt activation (log2)” value was found to be 1.47 ± 0.25. Take UACGUAGAUAUAUAUGUAUUUU: the “HRG-induced Akt activation (log2)” value came to 1.5 ± 0.16. As for UACGUCAUCGUUGUCAUCGUCA, the figure is 1.21 ± 0.51; as for UACUCAAAAAGCUGUCAGUCA, 1.02 ± 0.51; as for UACUCAGGAGAGUGGCAAUCAC, 1.1 ± 0.15. As for UACUCCAGAGGGCGUCACUCAUG, the figure is 1.02 ± 0.78; as for UACUGCAGACAGUGGCAAUCA, 1.21 ± 0.45; as for UACUGCAGACGUGGCAAUCAUG, 1 ± 0.63.

For UACUGCAUCAGGAACUGAUUGGA, the “HRG-induced Akt activation (log2)” value worked out at 0.878 ± 0.64. As for UACUUGGAAAGGCAUCAGUUG, the figure is 1.28 ± 0.25.

On to UAGAGUUACACCCUGGGAGUUA, for which the “HRG-induced Akt activation (log2)” value came out at 1.66 ± 0.19.

Consider UAGAUAAAAUAUUGGUACCUG, for which the “HRG-induced Akt activation (log2)” value worked out at 1.34 ± 0.55. As for UAGCAAAAACUGCAGUUACUUU, the “HRG-induced Akt activation (log2)” value was found to be 1.86 ± 0.15.

For UAGCACCAUCUGAAAUCGGUUA, the “HRG-induced Akt activation (log2)” value was 1.24 ± 0.077. As for UAGCACCAUUUGAAAUCAGUGUU, the figure is 1.47 ± 0.15. Take UAGCACCAUUUGAAAUCGGUUA: the “HRG-induced Akt activation (log2)” value was 1.17 ± 0.57. As for UAGCAGCACAGAAAUAUUGGC, the figure is 1.42 ± 0.76; as for UAGCAGCACAUAAUGGUUUGUG, 1.98 ± 0.18.

Consider UAGCAGCACAUCAUGGUUUACA, for which the “HRG-induced Akt activation (log2)” value came out at 1.59 ± 0.025. With UAGCAGCACGUAAAUAUUGGCG, the “HRG-induced Akt activation (log2)” value was determined as 2.03 ± 0.15. As for UAGCAGCGGGAACAGUUCUGCAG, the figure is 1.61 ± 0.1; as for UAGCUUAUCAGACUGAUGUUGA, 1.73 ± 0.11. Regarding UAGGACACAUGGUCUACUUCU, the “HRG-induced Akt activation (log2)” value was 1.04 ± 0.19. UAGGCAGUGUCAUUAGCUGAUUG: the “HRG-induced Akt activation (log2)” value came to 1.69 ± 0.15. For the sequence UAGGUAGUUUCAUGUUGUUGGG, the “HRG-induced Akt activation (log2)” value turned out to be 1.86 ± 0.1. Turning to UAGGUAGUUUCCUGUUGUUGGG, the “HRG-induced Akt activation (log2)” value amounted to 2.19 ± 0.23.

UAGGUUAUCCGUGUUGCCUUCG: the “HRG-induced Akt activation (log2)” value was 1.17 ± 0.16. As for UAGUACCAGUACCUUGUGUUCA, the figure is 1.19 ± 0.3. In the case of UAGUACUGUGCAUAUCAUCUAU, the “HRG-induced Akt activation (log2)” value is 1.44 ± 0.47.

Turning to UAGUAGACCGUAUAGCGUACG, the “HRG-induced Akt activation (log2)” value came out at 1.5 ± 0.21. On to UAGUGCAAUAUUGCUUAUAGGGU, for which the “HRG-induced Akt activation (log2)” value turned out to be 0.808 ± 0.069. For the sequence UAUACAAGGGCAAGCUCUCUGU, the “HRG-induced Akt activation (log2)” value was 1.05 ± 0.18. As for UAUACAAGGGCAGACUCUCUCU, the figure is 1.48 ± 0.24; as for UAUACCUCAGUUUUAUCAGGUG, 1.94 ± 0.15; as for UAUAGGGAUUGGAGCCGUGGCG, 1.04 ± 0.064. As for UAUGCAUUGUAUUUUUAGGUCC, the figure is 1.1 ± 0.81.

Turning to UAUGGCACUGGUAGAAUUCACU, the “HRG-induced Akt activation (log2)” value came out at 1.65 ± 0.3. As for UAUGGCUUUUCAUUCCUAUGUGA, the figure is 1.12 ± 0.29.

With UAUGGCUUUUUAUUCCUAUGUGA, the “HRG-induced Akt activation (log2)” value came out at 1.27 ± 0.27. In the case of UAUGUAACACGGUCCACUAACC, the “HRG-induced Akt activation (log2)” value was determined as 1.73 ± 0.081. As for UAUGUAACAUGGUCCACUAACU, the figure is 1.97 ± 0.17; as for UAUGUAAUAUGGUCCACAUCUU, 2.01 ± 0.2; as for UAUGUCUGCUGACCAUCACCUU, 2.316 ± 0.0055. As for UAUGUGCCUUUGGACUACAUCG, the figure is 1.56 ± 0.13.

For the sequence UAUGUGGGAUGGUAAACCGCUU, the “HRG-induced Akt activation (log2)” value worked out at 2.19 ± 0.34. As to UAUUCAUUUAUCCCCAGCCUACA, the “HRG-induced Akt activation (log2)” value stood at 1.59 ± 0.22. UAUUGCACAUUACUAAGUUGCA: the “HRG-induced Akt activation (log2)” value worked out at 1.07 ± 0.077. As to UAUUGCACUCGUCCCGGCCUCC, the “HRG-induced Akt activation (log2)” value was 1.33 ± 0.043. Regarding UAUUGCACUUGUCCCGGCCUGU, the “HRG-induced Akt activation (log2)” value amounted to 1.3 ± 0.12.

Take UCAAAACUGAGGGGCAUUUUCU: the “HRG-induced Akt activation (log2)” value was 1.34 ± 0.13. Consider UCAAAUGCUCAGACUCCUGUGGU, for which the “HRG-induced Akt activation (log2)” value is 1.63 ± 0.19. On to UCAAGAGCAAUAACGAAAAAUGU, for which the “HRG-induced Akt activation (log2)” value stood at 1.91 ± 0.14. As for UCACAAGUCAGGCUCUUGGGAC, the figure is 1.27 ± 0.15; as for UCACAAUGCUGACACUCAAACUGCUGAC, 1.45 ± 0.48.
